# Test results: patent US12077503B2, “Substituted cyclic amides and their use as herbicides” (FMC CORPORATION, priority 2015, dated 2024)
# Columns and labels:
# Format in all cases: in vivo
# [1] = test system: barnyardgrass (Echinochloa crus-galli); assay: Test B flooded paddy test; conditions: Flood, 0 to 100 scale where 0 is no effect and 100 is complete control, 13 to 15 d
# In short: (§1)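 Flooding to 3 cm over soil accompanied treatment, which consisted of adding compound to the standing water around 2-leaf plants; depth was then maintained. Visual assessment versus controls followed at 13 to 15 d (scale 0–100, 0 meaning no effect).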
# [2] = test system: ducksalad (Heteranthera limosa); assay: Test B flooded paddy test; conditions: Flood, 0 to 100 scale where 0 is no effect and 100 is complete control, 13 to 15 d
# In short: as §1
# rice (Oryra sativa) = assay: Test B flooded paddy test; conditions: Flood, 0 to 100 scale where 0 is no effect and 100 is complete control, 13 to 15 d
# In short: as §1
# [3] = test system: sedge, umbrella (small-flower umbrella sedge, Cyperus difformis); assay: Test B flooded paddy test; conditions: Flood, 0 to 100 scale where 0 is no effect and 100 is complete control, 13 to 15 d
# In short: as §1
# [4] = test system: ryegrass, Italian (Italian ryegrass, Lolium multiflorum); assay: Test A preemergence; conditions: Preemergence; for Plant response rating, Ryegrass, Italian: 125 g ai/ha, visual injury after approximately 10 d, 0 to 100 scale where 0 is no effect and 100 is complete control; for Ryegrass, Italian plant response rating (0 to 100 scale, 0 is no effect, 100 is complete control): 500 g ai/ha, visual injury approx. 10 d
# In short: (§2)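 Seeded soil received test chemicals as a preemergence directed spray, and seedlings at one to two leaves, 2–10 cm tall, received them postemergence, in a non-phytotoxic, surfactant-containing solvent mixture. Pots were held in a greenhouse for approximately 10 d, then rated for injury from 0, no effect, to 100, complete control.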
# [5] = test system: ragweed (common ragweed, Ambrosia elatior); assay: Test A preemergence; conditions: Preemergence; for Plant response rating, Ragweed: 125 g ai/ha, visual injury after approximately 10 d, 0 to 100 scale where 0 is no effect and 100 is complete control; for Ragweed plant response rating (0 to 100 scale, 0 is no effect, 100 is complete control): 500 g ai/ha, visual injury approx. 10 d
# In short: as §2
# [6] = test system: pigweed (Amaranthus retroflexus); assay: Test A preemergence; conditions: Preemergence; for Plant response rating, Pigweed: 125 g ai/ha, visual injury after approximately 10 d, 0 to 100 scale where 0 is no effect and 100 is complete control; for Pigweed plant response rating (0 to 100 scale, 0 is no effect, 100 is complete control): 500 g ai/ha, visual injury approx. 10 d
# [7] = test system: barnyardgrass (Echinochloa crus-galli); assay: Test A preemergence; conditions: Preemergence; for Plant response rating, Barnyardgrass: 125 g ai/ha, visual injury after approximately 10 d, 0 to 100 scale where 0 is no effect and 100 is complete control; for Barnyardgrass plant response rating (0 to 100 scale, 0 is no effect, 100 is complete control): 500 g ai/ha, visual injury approx. 10 d
# In short: as §2
# [8] = test system: giant foxtail (Setaria faberii); assay: Test A preemergence; conditions: Preemergence; for Plant response rating, Foxtail, Giant: 125 g ai/ha, visual injury after approximately 10 d, 0 to 100 scale where 0 is no effect and 100 is complete control; for Foxtail, Giant plant response rating (0 to 100 scale, 0 is no effect, 100 is complete control): 500 g ai/ha, visual injury approx. 10 d
# In short: as §2
# Kochia (Kochia scoparia) [9] = assay: Test A preemergence; conditions: Preemergence; for Plant response rating, Kochia: 125 g ai/ha, visual injury after approximately 10 d, 0 to 100 scale where 0 is no effect and 100 is complete control; for Kochia plant response rating (0 to 100 scale, 0 is no effect, 100 is complete control): 500 g ai/ha, visual injury approx. 10 d
# In short: as §2
# [10] = test system: wheat (Triticum aestivum); assay: Test A postemergence
# Description: (§3) Seeds of plant species selected from barnyardgrass (Echinochloa crus-galli), Kochia (Kochia scoparia), ragweed (common ragweed, Ambrosia elatior), ryegrass, Italian (Italian ryegrass, Lolium multiflorum), crabgrass, large (Digitaria sanguinalis), giant foxtail (Setaria faberii), green foxtail (Setaria viridis), morningglory (Ipomoea spp.), pigweed (Amaranthus retroflexus), velvetleaf (Abutilon theophrasti), wheat (Triticum aestivum), and corn (Zea mays) were planted into a blend of loam soil and sand and treated preemergence with a directed soil spray using test chemicals formulated in anon-phytotoxic solvent mixture which included a surfactant.
# (§4) At the same time, plants selected from these crop and weed species and also blackgrass (Alopecurus myosuroides), and Galium (catchweed bedstraw, Galium aparine) were planted in pots containing the same blend of loam soil and sand and treated with postemergence applications of test chemicals formulated in the same manner. Plants ranged in height from 2 to 10 cm and were in the one- to two-leaf stage for the postemergence treatment. Treated plants and untreated controls were maintained in a greenhouse for approximately 10 d, after which time all treated plants were compared to untreated controls and visually evaluated for injury. Plant response ratings, summarized in Table A, are based on a 0 to 100 scale where 0 is no effect and 100 is complete control. A dash (-) response means no test result.
# [11] = test system: ryegrass, Italian (Italian ryegrass, Lolium multiflorum); assay: Test A postemergence
# Description: as §3, §4
# [12] = test system: ragweed (common ragweed, Ambrosia elatior); assay: Test A postemergence
# Description: as §3, §4
# [13] = test system: pigweed (Amaranthus retroflexus); assay: Test A postemergence
# Description: as §3, §4
# [14] = test system: barnyardgrass (Echinochloa crus-galli); assay: Test A postemergence; conditions: for Barnyardgrass plant response rating: 125 g ai/ha, postemergence, visual injury rating on 0 to 100 scale (0 no effect, 100 complete control), approx. 10 d; for Plant response rating, Barnyardgrass: Postemergence, 500 g ai/ha, 0 to 100 scale where 0 is no effect and 100 is complete control
# Description: as §3, §4
# corn (Zea mays) = assay: Test A postemergence
# Description: as §3, §4
# [15] = test system: Galium (catchweed bedstraw, Galium aparine); assay: Test A postemergence
# Description: as §3, §4
# [16] = test system: giant foxtail (Setaria faberii); assay: Test A postemergence
# Description: as §3, §4
# Kochia (Kochia scoparia) [17] = assay: Test A postemergence
# Description: as §3, §4
# [18] = test system: blackgrass (Alopecurus myosuroides); assay: Test A postemergence; conditions: for Blackgrass plant response rating: 125 g ai/ha, postemergence, visual injury rating on 0 to 100 scale (0 no effect, 100 complete control), approx. 10 d; for Plant response rating, Blackgrass: Postemergence, 500 g ai/ha, 0 to 100 scale where 0 is no effect and 100 is complete control
# Description: as §3, §4
# [19] = 125 g ai/ha, postemergence, visual injury rating on 0 to 100 scale (0 no effect, 100 complete control), approx. 10 d
# [20] = Postemergence, 500 g ai/ha, 0 to 100 scale where 0 is no effect and 100 is complete control
# [21] = 125 g ai/ha, postemergence, visual rating after approx. 10 d, 0 to 100 scale (0 no effect, 100 complete control)
SMILES,"Plant response rating, Ryegrass, Italian [4]","Ryegrass, Italian plant response rating (0 to 100 scale, 0 is no effect, 100 is complete control) [4]","Plant response rating, Ragweed [5]","Ragweed plant response rating (0 to 100 scale, 0 is no effect, 100 is complete control) [5]","Plant response rating, Pigweed [6]","Pigweed plant response rating (0 to 100 scale, 0 is no effect, 100 is complete control) [6]","Plant response rating, Barnyardgrass [7]","Barnyardgrass plant response rating (0 to 100 scale, 0 is no effect, 100 is complete control) [7]","Plant response rating, Foxtail, Giant [8]","Foxtail, Giant plant response rating (0 to 100 scale, 0 is no effect, 100 is complete control) [8]","Plant response rating, Kochia (Kochia (Kochia scoparia) [9])","Kochia plant response rating (0 to 100 scale, 0 is no effect, 100 is complete control) (Kochia (Kochia scoparia) [9])","Plant response rating, Wheat [10, 20]","Plant response rating, Ryegrass, Italian [11, 20]","Plant response rating, Ragweed [12, 20]","Plant response rating, Pigweed [13, 20]",Barnyardgrass plant response rating [14],"Plant response rating, Barnyardgrass [14]","Plant response rating, Corn (corn (Zea mays); [20])","Plant response rating, Galium [15, 20]",further results
O=C1NCC(c2ccc(C(F)(F)F)c(F)c2)C1C(=O)Nc1ccc(F)cc1F (racemic) [Compound 522],30,60,0,30,70,80,90,90,90,90,60,60,20,40,0,40,60,80,20,60,"Plant response rating, Barnyardgrass ([1]; 250 g ai/ha): 40; Plant response rating, Ducksalad ([2]; 250 g ai/ha): 100; Plant response rating, Rice (rice (Oryra sativa); 250 g ai/ha): 0; Plant response rating, Sedge, Umbrella ([3]; 250 g ai/ha): 0; Wheat plant response rating [10, 19]: 0; Ryegrass, Italian plant response rating [11, 19]: 20; Ragweed plant response rating [12, 19]: 0; Pigweed plant response rating [13, 19]: 20; Corn plant response rating (corn (Zea mays); [19]): 0; Galium plant response rating [15, 19]: 30; Foxtail, Giant plant response rating [16, 19]: 90; Plant response rating, Foxtail, Giant [16, 20]: 90; Kochia plant response rating (Kochia (Kochia scoparia) [17]; [19]): 20; Plant response rating, Kochia (Kochia (Kochia scoparia) [17]; [20]): 50; Blackgrass plant response rating [18]: 30; Plant response rating, Blackgrass [18]: 50"
O=C1NCC(c2ccc(Oc3ccccc3)cc2)C1C(=O)Nc1cccc(F)c1F (racemic) [Compound 536],0,0,0,0,0,0,0,0,0,20,0,0,0,0,0,0,0,0,0,0,"Plant response rating, Barnyardgrass ([1]; 500 g ai/ha): 30; Plant response rating, Ducksalad ([2]; 500 g ai/ha): 0; Plant response rating, Rice (rice (Oryra sativa); 500 g ai/ha): 15; Plant response rating, Sedge, Umbrella ([3]; 500 g ai/ha): 0; Plant response rating, Wheat [10, 21]: 0; Plant response rating, Ryegrass, Italian [11, 21]: 0; Plant response rating, Ragweed [12, 21]: 0; Plant response rating, Pigweed [13, 21]: 0; Plant response rating, Corn (corn (Zea mays); [21]): 0; Plant response rating, Galium [15, 21]: 0; Plant response rating, Foxtail, Giant [16, 21]: 0; Plant response rating, Foxtail, Giant [16, 20]: 30; Plant response rating, Kochia (Kochia (Kochia scoparia) [17]; [21]): 0; Plant response rating, Kochia (Kochia (Kochia scoparia) [17]; [20]): 0; Blackgrass plant response rating [18]: 0; Plant response rating, Blackgrass [18]: 0"
